Results from PubChem BioAssay AID1963833 (Molecular Pharmacology Branch, DTP, NCI, 2024).
pIC50: −log10 of the molar value.

Test system: 883617-216-R-J1-PDC complex spheroid viability
Assay: Anticancer human tumor 883617-216-R-J1-PDC patient-derived bladder carcinoma cell line growth inhibition [POLQ]
Settings: for pIC50: curve of first compound; for viability, T/C: stronger effect = lower value
How it was run: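 Three-cell-type spheroids modelling solid tumor plus stroma served as the readout system; POL inhibitors were tested individually and in combination, concentration ranges set by clinical Cmax where known.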

[1] = second compound 0.0316 µM, first compound 0.0316 µM
[2] = second compound 0.0316 µM, first compound 0.1 µM
[3] = second compound 0.0316 µM, first compound 0.316 µM
[4] = second compound 0.0316 µM, first compound 1 µM
[5] = second compound 0.0316 µM, first compound 3.16 µM
[6] = second compound 0.0316 µM, first compound 10 µM
[7] = second compound 0.1 µM, first compound 0.0316 µM
[8] = second compound 0.1 µM, first compound 0.1 µM
[9] = second compound 0.1 µM, first compound 0.316 µM
[10] = second compound 0.1 µM, first compound 1 µM
[11] = second compound 0.1 µM, first compound 3.16 µM
[12] = second compound 0.1 µM, first compound 10 µM
[13] = second compound 0.316 µM, first compound 0.0316 µM
[14] = second compound 0.316 µM, first compound 0.1 µM
[15] = second compound 0.316 µM, first compound 0.316 µM
[16] = second compound 0.316 µM, first compound 1 µM
[17] = second compound 0.316 µM, first compound 3.16 µM
[18] = second compound 0.316 µM, first compound 10 µM
[19] = second compound 1 µM, first compound 0.0316 µM
[20] = second compound 1 µM, first compound 0.1 µM
[21] = second compound 1 µM, first compound 0.316 µM
[22] = second compound 1 µM, first compound 1 µM
[23] = second compound 1 µM, first compound 3.16 µM
[24] = second compound 1 µM, first compound 10 µM
[25] = second compound 3.16 µM, first compound 0.0316 µM
[26] = second compound 3.16 µM, first compound 0.1 µM
[27] = second compound 3.16 µM, first compound 0.316 µM
[28] = second compound 3.16 µM, first compound 1 µM
[29] = second compound 3.16 µM, first compound 3.16 µM
[30] = second compound 3.16 µM, first compound 10 µM
[31] = second compound 10 µM, first compound 0.0316 µM
[32] = second compound 10 µM, first compound 0.1 µM
[33] = second compound 10 µM, first compound 0.316 µM
[34] = second compound 10 µM, first compound 1 µM
[35] = second compound 10 µM, first compound 3.16 µM
[36] = second compound 10 µM, first compound 10 µM
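Also: spheroids exposed to compounds for seven days before readout.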
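For viability, T/C in this document: 100% = DMSO vehicle control viability.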

Compound: CCc1cc2c(N3CCc4c(cc(Cn5ccnc5)cc4-c4cn(C)nc4C(F)(F)F)C3=O)cc(C)nc2c(OC)n1 + Nc1ccc(C#CCN(C(=O)Cc2ncc(C(F)(F)F)cc2C(F)(F)F)c2ccc(F)cc2)nn1
- pIC50 (second compound 0.0316 µM): < 5.00
- pIC50 (second compound 0.1 µM): < 5.00
- pIC50 (second compound 0.316 µM): < 5.00
- pIC50 (second compound 1 µM): < 5.00
- pIC50 (second compound 3.16 µM): < 5.00
- pIC50 (second compound 10 µM): 5.01
- viability, T/C [1]: 89.2%
- viability, T/C [2]: 92.2%
- viability, T/C [3]: 92.8%
- viability, T/C [4]: 90.4%
- viability, T/C [5]: 76%
- viability, T/C [6]: 52.3%
- viability, T/C [7]: 85.5%
- viability, T/C [8]: 96.9%
- viability, T/C [9]: 95.5%
- viability, T/C [10]: 90.6%
- viability, T/C [11]: 79.5%
- viability, T/C [12]: 64.5%
- viability, T/C [13]: 105%
- viability, T/C [14]: 93.1%
- viability, T/C [15]: 98%
- viability, T/C [16]: 88.4%
- viability, T/C [17]: 73.9%
- viability, T/C [18]: 57.4%
- viability, T/C [19]: 91.5%
- viability, T/C [20]: 93.3%
- viability, T/C [21]: 94%
- viability, T/C [22]: 88.9%
- viability, T/C [23]: 71.6%
- viability, T/C [24]: 61.8%
- viability, T/C [25]: 106%
- viability, T/C [26]: 92.4%
- viability, T/C [27]: 96.4%
- viability, T/C [28]: 97.5%
- viability, T/C [29]: 78.6%
- viability, T/C [30]: 67.8%
- viability, T/C [31]: 106%
- viability, T/C [32]: 118%
- viability, T/C [33]: 115%
- viability, T/C [34]: 101%
- viability, T/C [35]: 90.5%
- viability, T/C [36]: 48.8%

Compound: CC(C)n1c(=O)n(C)c2cnc3cc(F)c(-c4ccc(OCCCN5CCCCC5)nc4)cc3c21 + COC1C(OC(N)=O)C(O)C(Oc2ccc3c(O)c(NC(=O)c4ccc(O)c(CC=C(C)C)c4)c(=O)oc3c2C)OC1(C)C
- pIC50 (second compound 0.0316 µM): < 5.00
- pIC50 (second compound 0.1 µM): < 5.00
- pIC50 (second compound 0.316 µM): < 5.00
- pIC50 (second compound 1 µM): < 5.00
- pIC50 (second compound 3.16 µM): < 5.00
- pIC50 (second compound 10 µM): < 5.00
- viability, T/C [1]: 92.2%
- viability, T/C [2]: 94.5%
- viability, T/C [3]: 97.4%
- viability, T/C [4]: 93.1%
- viability, T/C [5]: 88.2%
- viability, T/C [6]: 65.1%
- viability, T/C [7]: 99%
- viability, T/C [8]: 103%
- viability, T/C [9]: 93.9%
- viability, T/C [10]: 104%
- viability, T/C [11]: 91.8%
- viability, T/C [12]: 82.6%
- viability, T/C [13]: 97%
- viability, T/C [14]: 92.2%
- viability, T/C [15]: 97.3%
- viability, T/C [16]: 101%
- viability, T/C [17]: 97%
- viability, T/C [18]: 76.3%
- viability, T/C [19]: 102%
- viability, T/C [20]: 103%
- viability, T/C [21]: 108%
- viability, T/C [22]: 91.2%
- viability, T/C [23]: 94.1%
- viability, T/C [24]: 84.5%
- viability, T/C [25]: 109%
- viability, T/C [26]: 108%
- viability, T/C [27]: 110%
- viability, T/C [28]: 95.7%
- viability, T/C [29]: 95.9%
- viability, T/C [30]: 81%
- viability, T/C [31]: 106%
- viability, T/C [32]: 97.3%
- viability, T/C [33]: 102%
- viability, T/C [34]: 98.3%
- viability, T/C [35]: 78.9%
- viability, T/C [36]: 72.8%
